Measurements from patent publication US7998988B2, “Biphenyl compounds useful in the treatment or prevention of cardiovascular disorders” (Bayer Schering Pharma Aktiengellschaft, priority 2005, dated 2011).

System: saphenous artery rings
Experiment: Vasorelaxant effect in vitro (phenylephrine-contracted artery rings)
Assay type: cell-based
Conditions: Oryctolagus cuniculus, rabbit saphenous artery rings, contraction induced by phenylephrine
Experimental: Rabbits are anesthetized and sacrificed by intravenous injection of thiopental sodium (about 50 mg/kg) and exsanguinated. The saphenous artery is removed and divided into rings 3 mm wide. The rings are mounted singly on in each case a pair of triangular hooks open at the end and made of 0.3 mm-thick special wire (Remanium®). Each ring is placed under an initial tension in 5 ml organ baths with Krebs-Henseleit solution which is at 37° C., is gassed with 95% 02/5% CO2 and has the following composition: NaCl 119 mM; KCl 4.8 mM; CaCl2×2H2O 1 mM; MgSO4×7 H2O 1.4 mM; KH2PO4 1.2 mM; NaHCO3 25 mM; glucose 10 mM; bovine serum albumin 0.001%. The force of contraction is detected with Statham UC2 cells, amplified and digitized via A/D converters (DAS-1802 HC, Keithley Instruments, Munich) and recorded in parallel on chart recorders. Contractions are induced by addition of phenylephrine.
After several (generally 4) control cycles, the substance to be investigated is added in each further run in increasing dosage, and the height of the contraction achieved under the influence of the test substance is compared with the height of the contraction reached in the last preceding run. The concentration necessary to reduce the contraction reached in the preceding control by 50% is calculated from this (IC50). The standard application volume is 5 μl. The proportion of DMSO in the bath solution corresponds to 0.1%.

Row | IC50 [nM] | SMILES
1 | 724 | COc1ccc(CCc2ccc(F)cc2/C=C/C(CCc2ccc(-c3noc(=O)[nH]3)cc2)Cc2ccc(C(=O)O)cc2)cc1 (single isomer, unassigned) [Example 11, E-4-(4-{5-Fluoro-2-[2-(4-methoxyphenyl)ethyl]phenyl}-2-{2-[4-(5-oxo-4,5-dihydro-[1,2,4]oxadiazol-3-yl)phenyl]ethyl}but-3-enyl)benzoic acid]
2 | 490 | O=C(O)c1ccc(CC(/C=C/c2ccccc2OCc2ccc(-c3ccc(C(F)(F)F)cc3)cc2)CCc2ccc(-c3noc(=O)[nH]3)cc2)cc1 (single isomer, unassigned) [Example 18]
3 | 505 | CC(C)(C)c1ccc(COc2ccc(F)cc2/C=C/C(CCc2ccc(-c3noc(=O)[nH]3)cc2)Cc2ccc(C(=O)O)cc2)cc1 (single isomer, unassigned) [Example 51]
4 | 714 | O=C(O)c1ccc(CCC(/C=C\c2ccccc2OCc2ccc(-c3ccc(C(F)(F)F)cc3)cc2)Cc2ccc(-c3noc(=O)[nH]3)cc2)cc1 (single isomer, unassigned) [Example 57]
5 | 263 | CC(C)(C)c1ccc(COc2ccccc2/C=C/C(CCc2ccc(C(=O)O)cc2)Cc2ccc(-c3noc(=O)[nH]3)cc2)cc1 (single isomer, unassigned) [Example 66]
6 | 898 | CC(C)(C)c1ccc(COc2ccccc2/C=C/C(CCCCC(=O)O)CCc2ccc(-c3noc(=O)[nH]3)cc2)cc1 (single isomer, unassigned) [Example 71, E-8-[2-(4-tert-Butylbenzyloxy)phenyl]-6-{2-[4-(5-oxo-4,5-dihydro-[1,2,4]oxadiazol-3-yl)phenyl]-ethyl}oct-7-enoic acid]
7 | 13 | CC(C)(C)c1ccc(COc2ccccc2/C=C/C(CCc2ccc(C(=O)O)cc2)Cc2ccc(-c3n[nH]c(=O)o3)cc2)cc1 (single isomer, unassigned) [Example 78, 4-{(4E)-5-{2-[(4-tert-Butylbenzyl)oxy]phenyl}-3-[4-(5-oxo-4,5-dihydro-1,3,4-oxadiazol-2-yl)benzyl]pent-4-en-1-yl}benzoic acid]
8 | 390 | CCCCCOc1ccccc1/C=C/C(CCc1ccc(C(=O)O)cc1)Cc1ccc(-c2noc(=O)[nH]2)cc1 (single isomer, unassigned) [Example 92]
9 | 410 | CCCCCCOc1ccccc1/C=C/C(CCc1ccc(C(=O)O)cc1)Cc1ccc(-c2noc(=O)[nH]2)cc1 (single isomer, unassigned) [Example 95]
10 | 1330 | O=C(O)c1ccc(CCC(/C=C\c2ccccc2OC(F)(F)F)Cc2ccc(-c3noc(=O)[nH]3)cc2)cc1 (single isomer, unassigned) [Example 96]
11 | 26 | O=C(O)c1ccc(CN(CCc2ccc(-c3noc(=O)[nH]3)cc2)CCc2ccccc2OCc2ccc(-c3ccc(C(F)(F)F)cc3)cc2)cc1 [Example 1, 4-[({2-[4-(5-Oxo-4,5-dihydro-[1,2,4]oxadiazol-3-yl)phenyl]ethyl}-{2-[2-(4′-trifluoromethylbiphenyl-4-ylmethoxy)phenyl]ethyl}amino)methyl]benzoic acid]
12 | 290 | CC(C)(C)c1ccc(COc2ccccc2/C=C/C(CCCCC(=O)O)CCc2ccc(-c3n[nH]c(=O)o3)cc2)cc1 (stereo not shown) [Example 74]
13 | 851 | CC(C)(C)c1ccc(COc2ccccc2/C=C/C(CCc2ccc(-c3n[nH]c(=S)[nH]3)cc2)Cc2ccc(C(=O)O)cc2)cc1 (stereo not shown) [Example 76, 4-((3E)-4-{2-[(4-tert-Butylbenzyl)oxy]phenyl}-2-{2-[4-(5-thioxo-4,5-dihydro-1H-1,2,4-triazol-3-yl)phenyl]ethyl}but-3-en-1-yl)benzoic acid]
14 | 74 | CC(C)(C)c1ccc(COc2ccccc2/C=C/C(CCc2ccc(C(=O)O)cc2)Cc2ccc(-c3n[nH]c(=O)[nH]3)cc2)cc1 (stereo not shown) [Example 80, 4-{(4E)-5-{2-[(4-tert-Butylbenzyl)oxy]phenyl}-3-[4-(5-oxo-4,5-dihydro-1H-1,2,4-triazol-3-yl)benzyl]pent-4-en-1-yl}benzoic acid]
15 | 422 | CC(C)(C)c1ccc(COc2ccccc2/C=C/C(CCc2ccc(C(=O)O)cc2)Cc2ccc(-c3n[nH]c(N)n3)cc2)cc1 (stereo not shown) [Example 81, 4-((4E)-3-[4-(5-Amino-1H-1,2,4-triazol-3-yl)benzyl]-5-{2-[(4-tert.-butylbenzyl)oxy]phenyl}pent-4-en-1-yl)benzoic acid]
16 | 58 | CC(C)(C)c1ccc(COc2ccccc2/C=C/C(CCCCC(=O)O)Cc2ccc(-c3n[nH]c(=O)o3)cc2)cc1 (stereo not shown) [Example 85, E-8-[2-(4-tert-Butylbenzyloxy)phenyl]-6-[4-(5-oxo-4,5-dihydro-[1,3,4]oxadiazol-2-yl)benzyl]oct-7-enoic acid]

Same assay, conditions: rabbit saphenous artery rings, contraction induced by phenylephrine

Row | IC50 [nM] | SMILES
17 | 850 | O=C(O)c1ccc(CC(/C=C/c2ccccc2OCc2ccc(-c3ccc(C(F)(F)F)cc3)cc2)CCc2ccc(-c3noc(=O)[nH]3)cc2)cc1 (single isomer, unassigned) [Example 19]
18 | 635 | O=C(O)c1ccc(CCC(/C=C/c2ccccc2OCc2ccc(-c3ccc(C(F)(F)F)cc3)cc2)Cc2ccc(-c3noc(=O)[nH]3)cc2)cc1 (single isomer, unassigned) [Example 56, E-4-{3-[4-(5-Oxo-4,5-dihydro-[1,2,4]oxadiazol-3-yl)benzyl]-5-[2-(4′-trifluoromethylbiphenyl-4-ylmethoxy)phenyl]pent-4-enyl}benzoic acid]
19 | 153 | CC(C)(C)c1ccc(COc2ccccc2/C=C/C(CCc2ccc(C(=O)O)cc2)Cc2ccc(-c3noc(=O)[nH]3)cc2)cc1 (single isomer, unassigned) [Example 67]
